Assays:
zebrafish = assay: Zebrafish safe dose test (survival rate); assay type: in vivo; settings: for survival rate of the zebrafishes: after 48 hours, 28.5° C., FIG. 2
Procedure: In this experiment, the zebrafishes that were used as the animal models in the experimental group were Tg (HuC:GFP), which is characterized by its primary sensory neurons (Rohon-Beard cells) that can produce fluorescence. The zebrafishes used in the control group were wild type zebrafishes. All of the zebrafishes were provided by TZCAS (Taiwan Zebrafish Core Facility at Academia Sinica, Taiwan) and TZCF (Taiwan Zebrafish Core Facility, Taiwan). First, the toxicity of BP to zebrafish was tested by injecting different dose of BP to zebrafishes. The zebrafishes were then kept at 28.5° C. After 48 hours, the survival rate of the zebrafishes was observed.
The survival rate of the zebrafishes treated with 500 mg/kg BP was 50%, and both of the survival rates of the zebrafishes treated with 250 mg/kg and 50 mg/kg BP were greater than 75%.

[1] = test system: MJD84.2 transgenic mice (SCA3 mice); assay: Local motor test in SCA3 mice; assay type: in vivo; settings: BP 100 or 500 mg/kg/bid, ligustilide 100 mg/kg/bid; for total moving distance vs untreated group and group fed with olive oil: FIG. 5A; for moving times (moving number) vs untreated group and group fed with olive oil: FIG. 5B; for moving time vs untreated group and group fed with olive oil: FIG. 5C
Procedure: (§1) MJD84.2 transgenic mice (i.e., the mice being transfected with ATXN3 gene with human 84 CAG repeat sequence, hereinafter referred to as “SCA3 mice”) were used in this experiment. MJD84.2 transgenic mice were an animal model used for studying spinal cerebellar atrophy.
(§2) The MJD84.2 transgenic mice of two weeks of age were randomly divided into five groups, each group had six mice. The mice were treated with the following conditions for two weeks: (1) untreated group; (2) treated with olive oil (i.e., only treated with the adjuvant); (3) treated with 100 mg/kg/bid (bis in die) of BP; (4) treated with 500 mg/kg/bid of BP; (5) treated with 100 mg/kg/bid of ligustilide. The wild type mice (WT) was used as a control group. After 2 weeks, local motor and rotarod test were conducted.
Local motor test was performed to test the exercise ability of mice. 10-week-old mice were tested on rotarod once every three weeks. Then, the mice were placed in a transparent acrylic box 2 hours and were free to move. A behavioral test was conducted for 1 hour by using VersaMax 420 (AccuscanInstrumentsInc, USA), and the data was analyzed by statistical methods.

[2] = test system: MJD84.2 transgenic mice (SCA3 mice); assay: Rotarod test in SCA3 mice; assay type: in vivo; settings: BP 100 or 500 mg/kg/bid, ligustilide 100 mg/kg/bid, 4 to 40 rpm within 300 seconds, FIG. 6
Procedure: as §1, §2
Rotarod test was performed to test the balance and grip ability of mice. The mice were given practice two weeks before the first behavioral test. The experiment was conducted using an IITC rotarod (IITC Life Science Inc, USA).
10-week-old mice were tested on a rotarod once every three weeks. The test condition was set as a linear acceleration from 4 to 40 rpm within 300 seconds. The time (sec) that the mice fell from the rotarod (i.e., latency to fall) was recorded. […] After the rotarod test, the body weight of the mice were recorded. […]

calbindin = assay: Western blotting of cerebellum proteins, anti-calbindin antibody; assay type: in vivo; settings: cerebellum tissue of SCA3 mice; BP 100 or 500 mg/kg/bid, ligustilide 100 mg/kg/bid; FIG. 8
Procedure: (§3) The MJD84.2 transgenic mice (i.e., the mice with modified ATXN3 gene) of eight weeks of age were randomly divided into five groups, with six mice in each group. The mice were treated with the following conditions: (1) untreated group; (2) treated with olive oil; (3) treated with 100 mg/kg/bid of BP; (4) treated with 500 mg/kg/bid of BP; (5) treated with 100 mg/kg/bid of ligustilide. Then, the mice were sacrificed at the age of 20 weeks and 24 weeks. Cerebellar slices staining and tissue protein extraction were performed (see Example 5). Whole brain tissue of the mice was fixed overnight with 3.7% formalin and embedded in paraffin. The samples were sectioned (4 μm) by using a Quanto kit (Thermo, USA) and mounted on a microscope slide.
The cerebellums of the mice sacrificed in example 4 were separated from the whole brain, and the proteins in the cerebellums were extracted. The purified proteins were analyzed by Western blotting assay using an anti-ubiquitin antibody and an anti-calbindin antibody, respectively, to determine the changes in the protein expression level of ubiquitin and calbindin in the cerebellum tissue of SCA3 mice in each group. β-actin was used as an internal control group.
It has been known that calbindin is a marker of Purkinje cells.

[3] = test system: motor neurons of zebrafishes treated with ATXN3 MO; assay: Zebrafish confocal microscopy test of motor neurons; assay type: in vivo; settings: 250 mg/kg BP with ATXN3 MO, after 48 hours; FIG. 4
Procedure: Zebrafish eggs were micro-injected with 300 nM/μl ATXN3 MO, 250 mg/kgBP, or ATXN3 MO in combination with 250 mg/kgBP, 125 mg/kg BP or 62.5 mg/kgBP. After 48 hours, the zebrafishes were enclosed in glass slides. The motor neurons in the living body were recorded by a confocal fluorescence microscopy.
The data shown in FIG. 4 was obtained by 100%*(the number of the survived zebrafishes/total number of the zebrafishes).

[4] = test system: zebrafishes injected with ATXN3 MO; assay: Zebrafish behavioral test (tail stimulation); assay type: in vivo; settings: FIG. 3
Procedure: Morpholinos (MO) was produced by modifying the structure of a fragment of DNA, which can block protein translation process of mRNA to inhibit the expression of a target protein. The ATXN3 MO used in this experiment has a sequence of 5′-[…]-3′ (SEQ ID NO. 1), and the standard used in the control group is 5′-[…]-3′ (SEQ ID NO. 2) (hereinafter referred to as “Ct MO”). Before injection, the MO was dissolved in ddH2O, stored at −20° C. for used. Zebrafish eggs were micro-injected within about one hour after birth. After 21 to 48 hours post fertilization (hpf), the zebrafish eggs were micro-injected with ATXN3 MO or ATXN3 MO in combination with 250 mg/kg BP, 125 mg/kg BP or 62.5 mg/kg BP. After 48 hours, the fish tails were stimulated by tips, and the number of stimulation causing movement of the fish tails was measured.

Purkinje cells = assay: Immunohistochemistry staining of cerebellar slices; assay type: in vivo; settings: cerebellum slices of SCA3 mice; BP 100 or 500 mg/kg/bid, ligustilide 100 mg/kg/bid; sacrificed at 20 and 24 weeks; FIG. 7
Procedure: as §3

ubiquitin = assay: Western blotting of cerebellum proteins, anti-ubiquitin antibody; assay type: in vivo; settings: cerebellum tissue of SCA3 mice treated with BP; FIG. 9
Procedure: as §3
The cerebellums of the mice sacrificed in example 4 were separated from the whole brain, and the proteins in the cerebellums were extracted. The purified proteins were analyzed by Western blotting assay using an anti-ubiquitin antibody and an anti-calbindin antibody, respectively, to determine the changes in the protein expression level of ubiquitin and calbindin in the cerebellum tissue of SCA3 mice in each group. β-actin was used as an internal control group. […]

[5] = test system: GFP-ATXN3 protein (Ataxin3Q84); assay: In vitro cell test: GFP-ATXN3 fluorescence in transfected cells; assay type: cell-based, human; settings: 5 μg/ml, 24 hours; HEK 293T or neural stem cells transfected with pEGFP-C1-Ataxin3Q84; FIG. 1
Procedure: In this experiment, the effects of BP and ligustilide on the protein expression level of SCA3 protein were analyzed. First, pEGFP-C1-Ataxin3Q84 plasmid (i.e., a plasmid comprising Ataxin gene with abnormal CAG repeat number (84Q)) containing green fluorescent protein or pEGFP-C1-Ataxin3Q28 plasmid (i.e., a plasmid comprising Ataxin gene with normal CAG repeat number (28Q)) (Addgene company, U.S.) was transfected into human embryonic kidney (HEK) cells 293T (Bioresource Collection and Research Center, Taiwan) or neural stem cells (NSC). The cells were then cultured in a DMEM medium (Dulbecco's modified Eagle's medium, Thermo) containing 10% fetal bovine serum (Gibco), and incubated in an incubator with 5% CO2 at 37° C. Then, the cells were treated with 5 μg/ml BP (A10353, purchased from Alfa Aesar, U.S.; with a purity of 95%) or ligustilide (5393-015M1, purchased from Pharmaron, China) for 24 hours. The protein aggregation of GFP-ATXN3 protein in the cells of each group was observed by a fluorescence microscopy. Wild type cells and cells transfected with green fluorescent protein (GFP) were used as the control group.

| Compound | survival rate of the zebrafishes (zebrafish; 50 mg/kg BP injected) | survival rate of the zebrafishes (zebrafish; 250 mg/kg BP injected) | survival rate of the zebrafishes (zebrafish; 500 mg/kg BP injected) [%] | safe dose for zebrafish (zebrafish; from survival rate after 48 hours) | total moving distance vs untreated group and group fed with olive oil [1] | moving times (moving number) vs untreated group and group fed with olive oil [1] | moving time vs untreated group and group fed with olive oil [1] | balance and grip ability (rotarod, latency to fall) vs untreated group and group fed with olive oil [2] | protein expression level of calbindin vs untreated group and group fed with olive oil (calbindin) | number of motor neurons [3] | amount of stimulation causing the movement of fish tails ([4]; ATXN3 MO in combination with 250, 125 or 62.5 mg/kg BP, after 48 hours, vs ATXN3 MO alone) | restoring of behavioral ability of the diseased zebrafishes, comparison of doses ([4]; BP of 250 mg/kg, compared with 125 and 62.5 mg/kg) | number of the Purkinje cells vs untreated group and group fed with olive oil (Purkinje cells) | content of the ubiquitination proteins vs untreated group and group fed with olive oil (ubiquitin) | fluorescent signal of Ataxin3Q84 in the cells vs untreated groups [5] |
| --- | --- | --- | --- | --- | --- | --- | --- | --- | --- | --- | --- | --- | --- | --- | --- |
| CCCC=C1OC(=O)c2ccccc21 [BP, n-butylidenephthalide] | greater than 75% | greater than 75% | 50 | lower than 250 mg/kg | higher | higher | higher | better | significantly higher | can maintain the number of motor neurons | restored (i.e., decreased) | the most obvious effect | significantly higher | significantly higher | significantly lower |
| CCC/C=C1\OC(=O)C2=C1CCC=C2 [ligustilide, 3-butylidene-4,5-dihydrophthalide] | – | – | – | – | higher | higher | higher | better | significantly higher | – | – | – | significantly higher | – | significantly lower |

Reference: US9889117B2, “Method for treating and/or delaying the degeneration of Purkinje cells” (EVERFRONT BIOTECH INC., priority 2014, dated 2018)
